Assay results as given in article PMC8179002, “Inhibitors of thiol-mediated uptake” (Chemical Science, 2020).
Read-outs that look alike come from different tables or passages of the source.

Columns and labels:
HeLa Kyoto cells [1] = settings: cited from earlier work
HeLa Kyoto cells [2] = assay: Relative cell viability in HCHT screening (propidium iodide negative nuclei count); format: cell-based; settings: HeLa, removal, tinc 0.5 h with 1 (10 µM), read-out: GI50, concentration causing 50% cell growth inhibition
Method: (§1) With COCs 1 and 2 as cell-penetrating reporters, a fully automated, fluorescent microscopy image-based high-content high-throughput (HCHT)[19] inhibitor screening assay was developed. HeLa cells in multiwell plates are incubated with a reporter at constant and inhibitors at varying concentrations and incubation times. Hindered reporter uptake then causes decrease of fluorescence inside of cells (Fig. 3a). Automated data analysis[19] was established to extract average fluorescence intensity per cell and, at the same time, cell viability from propidium iodide negative nuclei count (Fig. 3 and S3–S6 ^†). Standard assay conditions consisted of pre-incubation of HeLa cells with inhibitors for different periods of time, followed by the removal of inhibitors and the addition of reporters, thus excluding possible interactions between the two in the extracellular environment. In alternative co-incubation conditions, inhibitors were not removed before the addition of reporters to allow for eventual interactions between the two.
(§2) To be able to extract the fluorescent integrated intensity information (sum of the intensities of all the pixels included in the mask) from the green channel for live cell only, the image analysis pipeline contains several steps of cell filtering and selection:
(§3) 1) Firstly, PI is used to stain any remaining nuclei of dead cell. In the analysis pipeline, all the “dead” nuclei are detected based on their fluorescent intensity in the PI channel (Figure […]
(§4) Fig. S4 (A) PI positive nuclei mask (fluorescent intensity threshold of 1000). (B) Overlap image of dead nuclei mask and original all cell body mask. (C) Resulting cell mask after removing any cell marked by a dead nucleus, new mask is called “Live Cell”. Scale bar: 50 μm.
(§5) 2) Elimination of non-full cells from the border of the image is performed, to avoid inaccurate fluorescent integrated intensity quantification (fluorescent integrated intensity = sum of intensity of all the pixel of the object) (Figure S5).
(§6) (1 picture or pasted object on this page, not shown here)
(§7) 4.3. HCHT Inhibitor Screening with ETP as Reporter […]
(§8) Relative cell viability (RV) for each condition in the presence of inhibitors were calculated using the count value of living cells by dividing the count value of living cells with addition of reporter 1, Hoechst 33342 and PI, for each set of experiments. Duplicates were performed for each condition. The resulting dependence of the relative cell viability (RVrel) to the concentration of inhibitors (cinhibitor) was plotted and fitted with Equation (S2) to retrieve the concentration causing 50% cell growth inhibition (GI50) value and the Hill coefficient (n).
(§9) RVrel = 1 / (1 + (GI50 / cinhibitor)n) (S2)
(§10) Note: Reporter 1 were not toxic for 1 h at 10 μM.S2 Also in this study, the count value of living cells with addition of reporter 1, Hoechst 33342 and PI is always similar to that of living cells with only addition of Hoechst 33342 and PI.
as §8, with “with” for “in the presence of”, “2,” for “1,”
(§11) Note: Reporter 2 were not toxic for 24 h at 10 μM.S3 Also in this study, the count value of living cells with addition of reporter 2, Hoechst 33342 and PI is always similar to that of living cells with only addition of Hoechst 33342 and PI.
(§12) 4.4.1. Screening with Disulfides as Inhibitors
(§13) 4.4.1.1. Screening with ETP as Inhibitors
(§14) Fig. S35 Automatically analyzed HCHT data showing fluorescence intensity (filled symbols) and relative viability (empty symbols) of HeLa cells after pre-incubation with 3 for 1 h (blue […]

[3] = test system: cellular uptake of 1 in HeLa Kyoto cells; assay: cells; format: cell-based; settings: HeLa; for MIC, inhibition of cellular uptake of 1 / IC50 / minimal effective concentration: removal, tinc 0.5 h with 1 (10 µM); for IC50: read-out: IC50, inhibition of cellular uptake of 1; for minimal effective concentration: read-out: MIC, inhibition of cellular uptake of 1
Method: as §1
4. High-Content High-Throughput (HCHT) Inhibitor Screening
4.1. General Procedure for HCHT Inhibitor Screening
4.1.1. Pre-Incubation of Inhibitors
HeLa Kyoto cells were seeded at 1.2 ×10^4 cells/well in FluoroBrite DMEM + 10% FBS on μ-Plate 96-well Black ibiTreat sterile and kept at 37 °C with 5% CO2 overnight. Next day, serial dilutions of the inhibitors in PBS (10x final concentration), reporter 1 or 2 (100 μM in PBS) and a solution of Hoechst 33342 (100 μg/mL) and PI (10 μg/mL) in PBS were prepared freshly in a 96-well V-bottom plate. Then, cells were washed with PBS ([…]) and the media was exchanged to FluoroBrite DMEM (4 x 150 μL/well) using a plate washer (Biotek EL406®), keeping always a final volume of 135 μL/well. The inhibitor solutions from the V-bottom plate were added to the cells (15 μL/well, 10x final concentration in PBS) using an electronic multichannel pipettes to reach a final volume of 150 μL/well. Cells were incubated for the time of interest (for details of each inhibitors, see Section 4.3 and 4.4) at 37 °C with 5%
CO2. After this, cells were washed again using the plate washer and reporter solution 1 or 2 from the V-bottom plate was added (15 μL/well) using an electronic multichannel pipettes to reach a final volume of 150 μL/well and a final concentration of 10 μM, except for the control wells, where only PBS was added (15 μL/well). After 30 min of incubation at 37 °C with 5% CO2, the plate was washed again using the plate washer. Then, the solution of Hoechst 33342 and PI from V-bottom plate was added (15 μL/well) using an electronic multichannel pipettes to reach a final volume of 150 μL/well. After 15 min of incubation at 37 °C with 5% CO2, the plate was washed one last time and the cells were kept in clean FluoroBrite DMEM. During imaging, samples were kept at 37 °C with 5% CO2 in the microscope.
4.1.2. Co-Incubation of Inhibitors and Reporters […]
serial dilutions of the inhibitors in PBS (10x final concentration), reporter 1 or 2 (110 μM in […]
freshly in a 96-well V-bottom plate. Then, cells were washed with the plate washer. The inhibitor solutions from the V-bottom plate were added to the cells (15 μL/well, 10x final concentration in PBS) using an electronic multichannel pipettes to reach a final volume of 150 μL/well. Cells were incubated for the time of interest (for details of each inhibitors, see Section 4.3 and 4.4) at 37 °C with 5% CO2. Reporter solution 1 or 2 from V-bottom plate was then added (15 μL/well) using an electronic multichannel pipettes to reach a final volume of 165 μL/well and a final concentration of 10 μM 30 min before the next washing process, except for the control wells, where only PBS was added (15 μL/well). The plate was washed again using the plate washer. The solution of Hoechst 33342 and PI from V-bottom plate was added (15 μL/well) using an electronic multichannel pipettes to reach a final volume of 150 μL/well. After […]

[4] = Relative cell viability in HCHT screening (propidium iodide negative nuclei count); format: cell-based; settings: human; for GI50: HeLa, removal, tinc 0.5 h with 1 (10 µM), read-out: GI50, concentration causing 50% cell growth inhibition
Method: as §1, §2, §3, §4, §5, §6, §7, §8, §9, §10
as §8, with “with” for “in the presence of”, “2,” for “1,”
as §11, §12, §13, §14

thiol-mediated uptake = assay: Inhibition of thiol-mediated uptake, reporter and protocol not stated; format: cell-based; settings: preliminary results; note 34
[5] = HeLa Kyoto, 1 h, tpre 1 h with inhibitor
[6] = HeLa Kyoto, tpre 1 h with inhibitor
[7] = HeLa Kyoto, 2 h, tpre 2 h with inhibitor
[8] = HeLa Kyoto, 4 h, tpre 4 h with inhibitor
[9] = HeLa Kyoto, tpre 2 h with inhibitor
[10] = HeLa Kyoto, tpre 4 h with inhibitor
[11] = GI50, concentration causing 50% cell growth inhibition

| SMILES | GI50 ([4]; tpre 1 h with inhibitor) [mM] | minimal effective concentration [3, 5] [µM] | IC50 [3, 6] [mM] | GI50 ([4]; tpre 2 h with inhibitor) [mM] | GI50 ([4]; tpre 4 h with inhibitor) [mM] | minimal effective concentration [3, 7] [µM] | minimal effective concentration [3, 8] [µM] | IC50 [3, 9] [mM] | IC50 [3, 10] [mM] | also measured |
| --- | --- | --- | --- | --- | --- | --- | --- | --- | --- | --- |
| CCN1C(=O)C2SSC1C(=O)N2CC(=O)NCCNC(=S)Nc1ccc(-c2c3ccc(=O)cc-3oc3cc(O)ccc23)c(C(=O)O)c1 (stereo not shown) [compound 1] | – | – | – | – | – | – | – | – | – | Toxicity of reporter (HeLa Kyoto cells [1]; 1 h at 10 μM, ref S2): not toxic |
| O=C(NCCNC(=S)Nc1ccc(-c2c3ccc(=O)cc-3oc3cc(O)ccc23)c(C(=O)O)c1)c1ccc2c(c1)SSSSS2 [compound 2] | – | – | – | – | – | – | – | – | – | Toxicity of reporter (HeLa Kyoto cells [1]; 24 h at 10 μM, ref S3): not toxic |
| [O-][S+]1CC(O)C(O)CS1 (stereo not shown) [compound 22] | – | – | – | – | – | – | – | – | – | GI50 (HeLa Kyoto cells [2]; tpre 1 h with inhibitor): 4.4 ± 0.2 mM; GI50 (HeLa Kyoto cells [2]; tpre 2 h with inhibitor): > 5 mM; GI50 (HeLa Kyoto cells [2]; tpre 4 h with inhibitor): > 2 mM; MIC, inhibition of cellular uptake of 1 ([3]; tpre 1 h with inhibitor): 800 µM; IC50 ([3]; tpre 1 h with inhibitor): > 5 mM; MIC, inhibition of cellular uptake of 1 ([3]; tpre 2 h with inhibitor): 600 µM; IC50 ([3]; tpre 2 h with inhibitor): > 2 mM; MIC, inhibition of cellular uptake of 1 ([3]; tpre 4 h with inhibitor): 300 µM; IC50 ([3]; tpre 4 h with inhibitor): > 2 mM |
| CNC(=O)[C@H](CS[S+]([O-])C[C@H](NC(=O)OC(C)(C)C)C(=O)NC)NC(=O)OC(C)(C)C (stereo partly shown) [compound 26] | > 1 | > 1000 | > 1 | – | – | – | – | – | – | Inhibition of uptake of reporter 1, in words [3]: disappointing |
| O=C(O)CCCCC1CCS[S+]1[O-] (stereo not shown) [compound 27] | > 5 | > 2000 | > 2 | > 5 | 1.8 ± 0.3 | > 2000 | > 2000 | > 2 | > 2 | – |
| O=C(O)C1CSSC1 [compound 28] | > 2 | > 2000 | > 2 | > 2 | > 2 | > 2000 | > 2000 | > 2 | > 2 | – |
| O[C@@H]1CSSC[C@@H]1O [compound 29] | > 2 | > 2000 | > 2 | > 2 | > 2 | > 2000 | > 2000 | > 2 | > 2 | – |
| O=C(O)CCCCC1CCSS1 (stereo not shown) [compound 30] | – | > 2000 | > 2 | – | – | > 2000 | > 2000 | > 2 | > 2 | GI50 at 1 h [4, 11]: > 2 mM; GI50 at 2 h [4, 11]: > 2 mM; GI50 at 4 h [4, 11]: > 2 mM |
| O=c1c2ccccc2[se]n1-c1ccccc1 [ebselen] | – | – | – | – | – | – | – | – | – | Inhibition of thiol-mediated uptake, in words (thiol-mediated uptake): inhibits |
